Measurements published in ChEMBL document CHEMBL1201862, “PubChem BioAssay data set” (2004).
Active and inactive are the calls of the source.

What was measured:
[1] = target: Glucose-6-phosphate 1-dehydrogenase (Homo sapiens, UniProt P11413); assay: human G6PD enzyme inhibitors, dose response, selectivity assay for P. falciparum G6PD inhibitor project, biochemical, fluorescence (AID 504792); assay type: functional
[2] = target: T1, Sentrin-specific protease 1 (Homo sapiens, UniProt Q9P0U3); assay: potency of human SENP1 inhibitors, dose response, biochemical, kinetic FRET (AID 651697); assay type: functional; details: read-out: IC50_Mean
T1 sequence (Q9P0U3 whole entry): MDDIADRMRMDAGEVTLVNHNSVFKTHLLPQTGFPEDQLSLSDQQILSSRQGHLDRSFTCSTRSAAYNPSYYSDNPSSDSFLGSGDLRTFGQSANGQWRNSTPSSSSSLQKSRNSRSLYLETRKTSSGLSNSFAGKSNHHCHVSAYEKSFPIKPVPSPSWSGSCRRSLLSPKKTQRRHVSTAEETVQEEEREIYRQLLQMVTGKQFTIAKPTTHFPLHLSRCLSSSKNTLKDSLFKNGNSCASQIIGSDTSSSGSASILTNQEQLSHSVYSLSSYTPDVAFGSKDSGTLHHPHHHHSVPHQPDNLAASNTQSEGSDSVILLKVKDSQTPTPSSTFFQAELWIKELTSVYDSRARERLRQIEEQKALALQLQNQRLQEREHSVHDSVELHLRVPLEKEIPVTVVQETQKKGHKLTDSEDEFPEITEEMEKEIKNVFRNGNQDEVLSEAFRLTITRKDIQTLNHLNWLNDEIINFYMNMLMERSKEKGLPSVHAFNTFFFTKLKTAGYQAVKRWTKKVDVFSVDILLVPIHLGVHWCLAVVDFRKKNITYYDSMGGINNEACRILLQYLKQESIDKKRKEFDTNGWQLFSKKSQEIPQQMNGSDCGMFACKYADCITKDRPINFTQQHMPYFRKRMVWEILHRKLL

[3] = target: T2, RNA-binding protein pos-1 (Caenorhabditis elegans, UniProt G5EF15); assay: inhibitors of POS-1/mex-3 RNA binding, dose response, biochemical, fluorescence polarization (AID 1964);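 also: purified POS-1 fused to maltose binding protein made in E. coli; potency of compounds blocking POS-1 binding to fluorescent RNA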
T2 sequence (G5EF15 whole entry): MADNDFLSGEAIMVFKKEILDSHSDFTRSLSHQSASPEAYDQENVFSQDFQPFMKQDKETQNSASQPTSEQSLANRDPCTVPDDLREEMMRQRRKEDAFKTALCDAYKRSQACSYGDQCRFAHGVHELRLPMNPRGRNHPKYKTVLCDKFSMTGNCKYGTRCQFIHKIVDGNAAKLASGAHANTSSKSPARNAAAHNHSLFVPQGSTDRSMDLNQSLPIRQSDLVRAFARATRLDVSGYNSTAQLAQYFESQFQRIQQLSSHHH

[4] = target: T1, Sentrin-specific protease 1; assay: Dose response confirmation of small molecule inhibitors of the catalytic domain of the SUMO protease, SENP1 in a FRET assay.; assay type: functional; details: read-out: IC50_Mean
[5] = target: T3, Zinc finger protein mex-5 (Caenorhabditis elegans, UniProt Q9XUB2); assay: MEX-5/TCR-2 RNA interaction inhibitors, dose response, biochemical, C. elegans, fluorescence polarization (AID 1960)
T3 sequence (Q9XUB2 whole entry): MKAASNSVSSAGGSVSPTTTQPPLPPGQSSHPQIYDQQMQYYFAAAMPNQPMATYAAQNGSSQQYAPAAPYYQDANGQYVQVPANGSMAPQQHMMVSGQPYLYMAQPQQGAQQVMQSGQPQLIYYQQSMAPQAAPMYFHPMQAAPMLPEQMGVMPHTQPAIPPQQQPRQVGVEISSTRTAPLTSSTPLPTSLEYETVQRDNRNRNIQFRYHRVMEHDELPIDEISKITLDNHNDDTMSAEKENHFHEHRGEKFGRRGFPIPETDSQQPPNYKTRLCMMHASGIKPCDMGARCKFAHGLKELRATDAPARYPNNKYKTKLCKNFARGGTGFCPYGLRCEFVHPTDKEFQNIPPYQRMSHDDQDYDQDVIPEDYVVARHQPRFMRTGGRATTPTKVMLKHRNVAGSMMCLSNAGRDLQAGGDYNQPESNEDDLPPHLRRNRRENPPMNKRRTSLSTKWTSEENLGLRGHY

[6] = test system: Streptococcus sp. 'group A'; assay: growth inhibition of control SK(-) GAS strain, dose response, counter-screen for streptokinase expression inhibitor project, luminescence, kanamycin, BacTiterGlo, confirmation (AID 1900); assay type: functional, organism-based
Vero [7] = assay: cells; assay type: functional, cell-based; details: Chlorocebus sabaeus
Streptococcus = assay: Group A Streptococcus viability loss, dose response, counter-screen for streptokinase expression inhibitor project, luminescence, BacTiterGlo (AID 1915); assay type: functional, organism-based;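 also: potency for reduction of bacterial viability or growth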
Vero [8] = assay: cells; assay type: functional; details: Chlorocebus sabaeus
HEK293 = assay: inhibitors of LMP1-driven NF-kB reporter, dose response, cell-based, HEK293, luciferase, cherry-pick (AID 588343); assay type: functional; details: Homo sapiens
[9] = target: Dual specificity tyrosine-phosphorylation-regulated kinase 1A (Rattus norvegicus, UniProt Q63470); assay type: biochemical, Homo sapiens
[10] = target: T4, Corticotropin-releasing factor receptor 2/Corticotropin-releasing factor-binding protein (Homo sapiens, UniProt P24387+Q13324); assay: Dose Response confirmation of uHTS hits for small molecule antagonists of the CRF-binding protein and CRF-R2 receptor complex.; assay type: functional; details: read-out: IC50_Mean
T4 sequence (Q13324 whole entry): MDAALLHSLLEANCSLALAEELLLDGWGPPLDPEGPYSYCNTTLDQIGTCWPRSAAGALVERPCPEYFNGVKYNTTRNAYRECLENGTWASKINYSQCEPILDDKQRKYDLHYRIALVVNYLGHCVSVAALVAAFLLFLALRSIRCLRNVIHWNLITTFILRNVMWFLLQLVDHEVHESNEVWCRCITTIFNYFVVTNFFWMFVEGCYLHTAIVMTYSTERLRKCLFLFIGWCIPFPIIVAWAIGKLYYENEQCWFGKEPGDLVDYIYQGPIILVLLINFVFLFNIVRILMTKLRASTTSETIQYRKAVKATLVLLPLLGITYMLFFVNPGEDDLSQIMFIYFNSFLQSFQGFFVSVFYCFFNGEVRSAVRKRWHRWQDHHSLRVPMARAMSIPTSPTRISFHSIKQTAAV
T4 sequence (P24387 whole entry): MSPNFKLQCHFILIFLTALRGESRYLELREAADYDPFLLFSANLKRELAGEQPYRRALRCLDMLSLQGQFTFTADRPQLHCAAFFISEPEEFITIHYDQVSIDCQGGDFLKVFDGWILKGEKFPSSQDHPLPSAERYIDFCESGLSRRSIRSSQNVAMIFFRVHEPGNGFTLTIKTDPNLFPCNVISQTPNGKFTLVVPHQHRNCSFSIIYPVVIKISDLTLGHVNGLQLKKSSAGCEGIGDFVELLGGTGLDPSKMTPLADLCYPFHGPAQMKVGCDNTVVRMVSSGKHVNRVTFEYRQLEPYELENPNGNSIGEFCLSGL

[11] = target: T4, Corticotropin-releasing factor receptor 2/Corticotropin-releasing factor-binding protein; assay: activators of CRF receptor 2 with binding protein – uHTS hits, confirmation (AID 602473); assay type: functional; details: read-out: EC50_Mean
[12] = CRF-BP/CRF-R2 complex antagonists, dose response, cell-based, uHTS hits, 384-well (AID 651639); assay type: functional, Homo sapiens; details: read-out: IC50_Mean

Sequence of Glucose-6-phosphate 1-dehydrogenase (P11413 whole entry): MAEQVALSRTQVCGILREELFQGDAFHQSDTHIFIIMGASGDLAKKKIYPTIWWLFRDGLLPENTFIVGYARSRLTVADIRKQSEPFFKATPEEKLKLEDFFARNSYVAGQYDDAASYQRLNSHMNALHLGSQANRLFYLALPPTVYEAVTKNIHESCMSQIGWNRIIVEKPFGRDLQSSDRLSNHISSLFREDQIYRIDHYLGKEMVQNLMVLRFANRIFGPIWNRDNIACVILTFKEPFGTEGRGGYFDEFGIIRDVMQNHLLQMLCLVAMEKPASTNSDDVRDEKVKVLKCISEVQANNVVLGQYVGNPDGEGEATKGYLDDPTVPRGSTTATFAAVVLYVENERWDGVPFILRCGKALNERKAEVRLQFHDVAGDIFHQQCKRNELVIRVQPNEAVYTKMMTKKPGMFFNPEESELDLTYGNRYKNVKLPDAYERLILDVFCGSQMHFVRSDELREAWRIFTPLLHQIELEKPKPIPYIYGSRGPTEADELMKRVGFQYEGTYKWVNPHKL

CCCCOc1ccc(Cc2nnc(S)n2N)cc1
IC50 [1]: > 80 µM (inactive)

O=C(CN1C(=O)/C(=C\C=C\c2ccccc2)SC1=S)Nc1ccc(F)cc1
IC50 [2]: 7.54 µM (active) | EC50 [3]: > 300 µM (not active) | IC50 [4]: 5.21 µM (active) | EC50 [5]: > 300 µM (not active)

COc1ccc(C(=O)NNC(=S)NC(=O)/C=C/c2cccs2)cc1
EC50 [6]: 0.802 µM (active) | IC50 (Vero [7]): > 25 µM (active) | EC50 (Streptococcus): 4.2 µM (active) | CC50 (Vero [8]): > 25 µM (active)

O=c1c2cnn(-c3ccccc3)c2nc(-c2cccs2)n1-c1ccc(Cl)cc1
AC50 (HEK293): 1.78 µM (active)

Cc1ccc(N2CC(C(=O)OCC(=O)c3ccc([N+](=O)[O-])cc3)CC2=O)cc1 (stereo unspecified)
IC50 [1]: > 80 µM (inactive)

CC(=O)Nc1cccc(-c2cnc(N)c(C(=O)c3cccnc3)n2)c1
AC50 (HEK293): 21.4 µM (active) | AC50 [9]: 0.193 µM (active)

CCCCOc1ccc(OC(=O)Nc2cc(Cl)ccc2OC)cc1
IC50 [10]: < 0.368 µM (active) | EC50 [11]: > 53 µM (inactive) | IC50 [12]: > 20 µM (inactive)
